Measured values reported in patent US20030225002A1, “Co-therapy for the treatment of migraine comprising anticonvulsant derivatives and anti-migraine agents” (priority 2002, published 2003).

Experiments:
Type in all cases: in vivo, human
[1] = tested on: persistent daily headache with migraine features; assay: Case Study 1: persistent daily headache with migraine features; conditions: topiramate 75 mg/day with INDERAL at 20 mg/day
Text: The patient was a person with persistent daily headache with migraine features.

subjects with migraine [2] = assay: Clinical Study Trials #1 and #2: severity of nausea associated with migraine headaches; conditions: for Severity of Nausea Associated Migraine Headaches, Baseline / Severity of Nausea Associated Migraine Headaches, Double-Blind / Severity of Nausea Associated Migraine Headaches, Difference: scale 0 to 3; for Severity of Nausea Associated Migraine Headaches, Baseline / Severity of Nausea Associated Migraine Headaches, Double-Blind: triptan rescue therapy; for Severity of Nausea Associated Migraine Headaches, Double-Blind: Double-Blind Phase; for Severity of Nausea Associated Migraine Headaches, Difference: Double-Blind minus Baseline
Procedure: (§1) The primary objective of these studies was to evaluate the safety and efficacy of three doses of topiramate (50, 100, and 200 mg/day) versus placebo in the prophylaxis of migraine based on the change in the monthly (28 day) migraine period rate from the Prospective Baselin,e Period to the Double-Blind Phase. The secondary objectives for the studies were to assess dose response relationship, and to evaluate the effect of prophylactic treatment with topiramate (50, 100, and 200 mg/day) versus placebo on Health-Related Quality of Life (HRQL).
(§2) The studies were randomized, double-blind, placebo-controlled, parallel-group, multicenter studies. Male and female subjects were randomized equally to the four treatment groups.
(§3) While the IHS criteria was used to establish the diagnosis at study entry, the evaluation of efficacy was based on migraine periods. A migraine period was defined as the length of time between the onset and cessation of painful migraine symptoms. This period could last up to, but no longer than, 24 hours. If the painful symptoms persisted more than 24 hours after their initial onset, this was considered to be a new, distinct migraine period. If symptoms recurred within 24 hours of the initial onset, this was considered part of the same, initial period.
(§4) Subjects who completed the Baseline Phase and met the entry criteria were randomized to one of four treatment groups: 50 mg/day topiramate, 100 mg/day topiramate, 200 mg/day topiramate or placebo. The Double-Blind Phase had two periods: Titration and Maintenance, which are described in more detail below.
(§5) The Titration Period immediately followed the Baseline Phase and extended for eight weeks (56 days). During this period, subjects randomized to topiramate were started at a dose of 25 mg/day and the daily dose was increased by 25 mg weekly until they reach their assigned dose (or maximum tolerated dose, whichever is less). From the third week of Titration until the end of the Maintenance Period, a maximum of two dose level reductions were permitted for unacceptable tolerability problems. If the subject was still in the Titration Period after a dose reduction, rechallenge may have occurred in an attempt to achieve the subject's assigned dose, and, if unsuccessful, the dose may have been reduced again to the original reduced dose. Subjects who had their study medication dose decreased twice, and were still experiencing unacceptable tolerability problems that warranted additional dose reductions, exited the study. Clinic visits occurred on Day 29 (Visit 3) and Day 57 (Visit 4/End of Titration).
(§6) During this 18-week period, the subjects remained on the dose of study medication reached at the end of the Titration Period (the assigned dose or the maximum tolerated dose). If the subject experienced unacceptable tolerability problems, the dose was reduced, only one dose reduction was permitted in the maintenance. No rechallenge was permitted during the Maintenance Period, so that subject continued on the reduced dose for the remainder of the period. Subjects who already had their study medication dose decreased by two levels, and were still experiencing unacceptable tolerability problems that warranted additional dose reductions exited the study. Clinic visits occurred on Day 85 (Visit 5), Day 113 (Visit 6), Day 141 (Visit 7) and Day 183 (Visit 8/ Double-Blind Final Visit or Early Withdrawal).
(§7) Subjects were randomized to one of four treatment groups: a) placebo, b) 50 mg/day topiramate, c) 100 mg/day topiramate, or d) 200 mg/day topiramate. All subjects received study medication in a b.i.d. dosing regimen except during the first week of Titration, during which they took single evening doses.
(§8) In keeping with good pain management practices, subjects enrolled in these studies were permitted to take acute abortive/rescue medication as indicated for the treatment of pain during migraine/headache attacks. […]

subjects with migraine [3] = assay: Clinical Study Trials #1 and #2: severity of migraine headaches, topiramate with triptan rescue therapy; conditions: for Severity of Migraine Headaches, Baseline / Severity of Migraine Headaches, Double-Blind: triptan rescue therapy; for Severity of Migraine Headaches, Double-Blind: Double-Blind Phase; for Severity of Migraine Headaches, Difference: Double-Blind minus Baseline
Procedure: as §1, §2, §3, §4, §5, §6, §7, §8

CC1(C)O[C@@H]2[C@@H](CO[C@@]3(COS(N)(=O)=O)OC(C)(C)O[C@@H]23)O1 [topiramate, 2,3:4,5-bis-O-(1-methylethylidene)-β-D-fructopyranose sulfamate]
Effect on daily headaches [1]: significant improvement and resolution of the daily headaches | Migraine headache frequency on treatment [1]: approximately one per week | Severity of Nausea Associated Migraine Headaches, Baseline (subjects with migraine [2]; TPM 50 mg): 1.17 | Severity of Nausea Associated Migraine Headaches, Double-Blind (subjects with migraine [2]; TPM 50 mg): 1.17 | Severity of Nausea Associated Migraine Headaches, Difference (subjects with migraine [2]; TPM 50 mg): −0.01 | Severity of Nausea Associated Migraine Headaches, Baseline (subjects with migraine [2]; TPM 100 mg): 1.22 | Severity of Nausea Associated Migraine Headaches, Double-Blind (subjects with migraine [2]; TPM 100 mg): 1.12 | Severity of Nausea Associated Migraine Headaches, Difference (subjects with migraine [2]; TPM 100 mg): −0.10 | Severity of Nausea Associated Migraine Headaches, Baseline (subjects with migraine [2]; TPM 200 mg): 1.12 | Severity of Nausea Associated Migraine Headaches, Double-Blind (subjects with migraine [2]; TPM 200 mg): 1.09 | Severity of Nausea Associated Migraine Headaches, Difference (subjects with migraine [2]; TPM 200 mg): −0.03 | Statistical significance of effect on severity of nausea (in words) (subjects with migraine [2]; patients taking 100 mg topiramate): Statistically significant differences in the severity of nausea | Effect on severity of nausea associated with migraine headaches (in words) (subjects with migraine [2]; topiramate with triptan class rescue medications, measurable at 100 mg and 200 mg): decrease in the severity of nausea | Severity of Migraine Headaches, Baseline (subjects with migraine [3]; TPM 50 mg, scale 0 to 3 (0=none, 3=severe)): 2.32 | Severity of Migraine Headaches, Double-Blind (subjects with migraine [3]; TPM 50 mg, scale 0 to 3): 2.18 | Severity of Migraine Headaches, Difference (subjects with migraine [3]; TPM 50 mg, scale 0 to 3): −0.13 | Severity of Migraine Headaches, Baseline (subjects with migraine [3]; TPM 100 mg, scale 0 to 3): 2.33 | Severity of Migraine Headaches, Double-Blind (subjects with migraine [3]; TPM 100 mg, scale 0 to 3): 2.14 | Severity of Migraine Headaches, Difference (subjects with migraine [3]; TPM 100 mg, scale 0 to 3): −0.19 | Severity of Migraine Headaches, Baseline (subjects with migraine [3]; TPM 200 mg, scale 0 to 3): 2.26 | Severity of Migraine Headaches, Double-Blind (subjects with migraine [3]; TPM 200 mg, scale 0 to 3): 2.16 | Severity of Migraine Headaches, Difference (subjects with migraine [3]; TPM 200 mg, scale 0 to 3): −0.10 | Statistical significance of effect on severity of migraine headaches (in words) (subjects with migraine [3]; patient group taking 100 mg topiramate): Statistically significant results | Effect on severity of migraine headaches (in words) (subjects with migraine [3]; topiramate in combination with triptan rescue medication vs rescue medications alone, 50, 100 and 200 mg): decrease in the severity of migraine headaches
